{"source": "patent US5993815A", "about": "“Methods and compositions for inhibiting the activation of thrombin-activatable fibrinolysis inhibitor (TAFI)” (University of Vermont, priority 1997, dated 1999)", "assay_type_in_all_cases": "biochemical", "key": {"[1]": {"target": "T1, thrombin in complex with thrombomodulin (activation of purified human TAFI) (Homo sapiens, UniProt P00734)", "T1 construct": "Prothrombin was purified as described previously and used to prepare thrombin; made in house", "test": "two-stage TAFI activation assay, chromogenic substrate hippuryl arginine", "conditions": "FPA-CK 50 nmol/L present during incubation of TAFI with thrombin and thrombomodulin, 10 minutes at 22° C.", "method": "In a 25-μL reaction volume, TAFI zymogen (0.8 μmol/L final concentration) is incubated with thrombomodulin (40 nmol/L final concentration), Ca^2+ (5.0 mmol/L final concentration), and thrombin (8.0 nmol/L final concentration) in the presence and absence of the putative peptide for 10 minutes at 22° C. Thrombin is then inhibited by the addition of the Phe-Pro-Arg chloromethyl ketone (FPA-CK 50 nmol/L final concentration). […] A negative control may be used by adding FPA-CK at the initiation of the reaction. In the negative control TAFI is not activated because the thrombin is inhibited from functioning. […] The time course of hippuric acid formation is measured by first correcting the volume in each of the reactions by the addition of a volume of buffer equal to that of the added putative peptide. […] The time course of hippuric acid formation at 22° C. is followed by monitoring absorbance at 254 nm and 0.5 minute intervals using a spectrophotometer such as Beckman DU-65 spectrophotometer (Fullteron, Calif.).\nHydrolysis of the chromogenic substrate, hipurryl arginine, was used to determine whether MoAbTAFI#16 inhibits active TAFI. […] The time course of hippuric acid formation at 22° C. was followed by monitoring absorbance at 254 nm and 0.5 minute intervals using a Beckman DU-65 spectrophotometer (Fullteron, Calif.). […]"}, "[2]": {"target": "T2, active TAFI (thrombin-activatable fibrinolysis inhibitor, plasma carboxypeptidase B) in clots formed from normal human plasma (Homo sapiens, UniProt Q96IY4)", "T2 construct": "tissue Haematologic Technologies Inc. (Burlington, Vt.); host or cells: pooled (3 to 4 donors) fresh frozen human plasma", "T2 sequence (Q96IY4 115-423)": "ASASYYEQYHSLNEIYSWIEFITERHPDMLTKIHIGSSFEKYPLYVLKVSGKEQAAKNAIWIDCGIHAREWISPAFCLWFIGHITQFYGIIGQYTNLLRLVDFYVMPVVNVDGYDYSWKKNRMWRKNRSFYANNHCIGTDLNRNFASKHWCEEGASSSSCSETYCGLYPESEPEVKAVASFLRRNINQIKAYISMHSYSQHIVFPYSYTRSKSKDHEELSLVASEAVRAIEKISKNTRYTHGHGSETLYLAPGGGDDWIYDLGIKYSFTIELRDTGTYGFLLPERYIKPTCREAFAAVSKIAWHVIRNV", "test": "turbidometric tPA-induced lysis assay of clots formed from normal human plasma (NHP)", "conditions": "tPA 294 pmol/L, 37° C., TAFI-dependent profibrinolytic effect, read-out: EC50 (shortening of lysis time)", "experimental": "(§1) Preparation of plasma for lysis assays. Pooled (3 to 4 donors) fresh frozen human plasma was purchased from Haematologic Technologies Inc. (Burlington, Vt.) and dialyzed against 4 L of 20 mmol/L HEPES, 150 mmol/L NaCl, pH 7.4 (HBS) at 4° C. with 4 changes overnight. The dialysate, termed normal human plasma (NHP), was stored at -70° C. in 2.0-mL aliquots. TAFI-deficient plasma (TdP) was produced by passing an aliquot, maximally 50 mL, of NHP over a 2.0-mL anti-TAFI affinity column (MoAbTAFI#16-Sepharose 4B) equilibrated in HBS. Depletion of TAFI was verified by Western blot analysis of a sample from each individual fraction. Only the flow-through fractions depleted of TAFI with an A280 equal to the NHP loaded onto the column were pooled and subsequently stored in 2.0 mL aliquots at -70° C. Pooled plasma samples were also subjected to Western blotting and TAFI concentrations were quantified by ELISA.\n(§2) Lysis assay. […] After adding the plasma to the microtiter wells, the plate was transferred to a THERMOMAX microtiter plate reader (Molecular Devices). Temperature was maintained at 37° C. and the turbidity was monitored at 405 nm and 2.5-minute intervals. […]\n(§3) 3. […] The TAFI-dependent profibrinolytic effect of each compound was evaluated by determination of lysis time of clots formed from both NHP and TdP in the presence of various concentrations of each inhibitor. […]"}, "[3]": {"tested_on": "clots formed from TAFI-deficient human plasma (TdP)", "test": "turbidometric tPA-induced lysis assay of clots formed from TAFI-deficient plasma (TdP)", "conditions": "every concentration studied; lysis time approximately 50 minutes", "experimental": "as §1, §2, §3"}}}
{"compound": "N=C(N)NCCC[C@H](NC(=O)[C@@H]1CCCN1C(=O)[C@@H](N)Cc1ccccc1)C(=O)CCl", "note": "[FPA-CK, Phe-Pro-Arg chloromethyl ketone]", "values": [{"measurement": "active TAFI activity generated", "setting": "[1]", "value": "No active TAFI activity was generated"}]}
{"compound": "N=C(N)NCCSC(CC(=O)O)C(=O)O", "note": "(stereo not drawn) [GEMSA, 2-Guanidinoethylmercaptosuccinic acid]", "values": [{"measurement": "EC50", "setting": "[2]", "value": 90, "unit": "µM"}, {"measurement": "effect on lysis time of clots formed from TdP", "setting": "[3]", "value": "did not affect lysis time"}]}
